The EC50 is the midpoint of the concentration-response curve. Broadly, the EC90 is the concentration at which the effect reaches the 90% level. One may read the CC50 as the concentration at which the toxic effect on the cells reaches its halfway point.

The values below come from ChEMBL document CHEMBL4014354, “2'-Chloro,2'-fluoro Ribonucleotide Prodrugs with Potent Pan-genotypic Activity against Hepatitis C Virus Replication in Culture” (J Med Chem, 2017).

The subject of one series is Hepatitis C virus. As to the kind of experiment: Antiviral activity against HCV genotype 1b harboring wild type NS5B infected in human HuH7 cells assessed as inhibition of viral RNA replication after 5 days by RT-PCR method. Format: functional, cell-based, Hepacivirus hominis. The settings on record: Huh-7, 120 h.
The nature of series [1]: Cytotoxicity against human HuH7 cells assessed as inhibition of cell proliferation after 4 days by MTS assay. It counts as cell-based, Huh-7. On the technique in general: Tetrazolium dyes change colour on reduction, which living cells bring about.
Series [2] in a line: Cytotoxicity against human PBMC assessed as inhibition of cell proliferation after 5 days by MTT assay. Format: cell-based.
A short description of series [3]: Cytotoxicity against human CEM cells assessed as inhibition of cell proliferation after 4 days by MTT assay. Format: cell-based, CCRF-CEM.
Series [4] in a line: Cytotoxicity against African green monkey Vero cells assessed as inhibition of cell proliferation after 3 days by MTT assay. Format: cell-based. The following applies: chlorocebus sabaeus.

SMILES strings stand for the structures. A value given as a limit tells only on which side of the number the result lay.

On to `Nc1ccn([C@@H]2O[C@H](CO)[C@@H](O)[C@]2(F)Cl)c(=O)n1`, for which, in the series on Hepatitis C virus, the EC50 turned out to be 0.3 µM and the EC90 is 0.9 µM. Further, the CC50 at 96 h in series [1] was > 10 µM. Further, in series [2], the CC50 at 120 h was determined as 12 µM. Further, in series [3], the CC50 at 96 h is > 100 µM. In series [4], the CC50 at 72 h is 8.4 µM.

With `Nc1ncnc2c1c(F)cn2[C@@H]1O[C@H](CO)C(O)C1(F)Cl` (single isomer, unassigned), in the series on Hepatitis C virus, the EC50 was > 10 µM and the concentration for an effect of 90% (EC90) is > 10 µM. Further, in series [1], the CC50 at 96 h was > 10 µM. Further, in series [2], the CC50 at 120 h was determined as 82.6 µM. Also, the half-maximal cytotoxic concentration (CC50) at 96 h in series [3] was determined as 19.9 µM. Further, the CC50 at 72 h in series [4] came out at 42.4 µM.

With `Nc1ncnc2c1c(I)cn2[C@@H]1O[C@H](CO)C(O)C1(F)Cl` (single isomer, unassigned), in the series on Hepatitis C virus, the EC50 was > 10 µM and the EC90 is > 10 µM. Also, the CC50 at 96 h in series [1] was > 10 µM. The cytotoxic concentration (CC50) at 120 h in series [2] was 6.6 µM. Besides, the half-maximal cytotoxic concentration (CC50) at 96 h in series [3] was 7.3 µM. Besides, the CC50 at 72 h in series [4] was 11.5 µM.

With `CC(C)OC(=O)[C@H](C)NP(=O)(OC[C@H]1O[C@@H](n2cnc3c(=O)[nH]c(N)nc32)[C@@](F)(Cl)[C@@H]1O)Oc1ccccc1` (stereo partly drawn), in the series with Hepatitis C virus, the EC50 came to 0.3 µM and the EC90 is 0.8 µM. Further, in series [1], the 50% cytotoxic concentration (CC50) at 96 h was > 10 µM. The cytotoxic concentration (CC50) at 120 h in series [2] was > 100 µM. For the same compound, the CC50 at 96 h in series [3] was > 100 µM. The CC50 at 72 h in series [4] is > 100 µM.

Regarding `Nc1ncnc2c1ncn2[C@@H]1O[C@H](CO)C(O)C1(F)Cl` (single isomer, unassigned), the EC50 in the series with Hepatitis C virus was > 10 µM. Moreover, the EC90 in the series with Hepatitis C virus is > 10 µM. For the same compound, the 50% cytotoxic concentration (CC50) at 96 h is > 10 µM in series [1] and > 100 µM in series [3]. Besides, the CC50 at 120 h in series [2] was > 100 µM. Further, the half-maximal cytotoxic concentration (CC50) at 72 h in series [4] is > 100 µM.

With `Nc1nc2c(ncn2[C@@H]2O[C@H](CO)[C@@H](O)[C@]2(F)Cl)c(=O)[nH]1`, in the series on Hepatitis C virus, the EC50 amounted to 19 µM and the concentration for an effect of 90% (EC90) was 33 µM. Further, the CC50 at 96 h in series [1] is > 33 µM. Also, the CC50 at 120 h in series [2] is > 100 µM. Also, in series [3], the CC50 at 96 h was > 100 µM. Further, the CC50 at 72 h in series [4] was > 100 µM.

Regarding `C[C@@]1(O)[C@H](O)[C@@H](CO)O[C@H]1n1ccc(N)nc1=O`, in the series on Hepatitis C virus, the EC50 was 1.7 µM. In the series on Hepatitis C virus, the EC90 is 6.5 µM. Besides, the CC50 at 96 h was > 10 µM in series [1] and > 100 µM in series [3]. In series [2], the CC50 at 120 h was > 100 µM. For the same compound, the cytotoxic concentration (CC50) at 72 h in series [4] was > 100 µM.

For `CC(C)OC(=O)[C@H](C)NP(=O)(OC[C@H]1O[C@@H](n2ccc3c(N)ncnc32)C(F)(Cl)C1O)Oc1ccccc1` (single isomer, unassigned), in the series with Hepatitis C virus, the EC50 is > 10 µM and the EC90 was > 10 µM. Further, the CC50 at 96 h in series [1] is > 10 µM. Also, in series [2], the 50% cytotoxic concentration (CC50) at 120 h was > 100 µM. Moreover, in series [3], the cytotoxic concentration (CC50) at 96 h was 69 µM. The CC50 at 72 h in series [4] is > 100 µM.

`CC(C)OC(=O)[C@H](C)NP(=O)(OC[C@H]1O[C@@H](n2cc(I)c3c(N)ncnc32)C(F)(Cl)C1O)Oc1ccccc1` (single isomer, unassigned): in the series with Hepatitis C virus, the EC50 was > 10 µM and the EC90 is > 10 µM. Moreover, the CC50 at 96 h in series [1] was > 10 µM. For the same compound, in series [2], the CC50 at 120 h was > 100 µM. Also, the CC50 at 96 h in series [3] was 69.3 µM. The CC50 at 72 h in series [4] was > 100 µM.

On to `CC(C)OC(=O)[C@H](C)NP(=O)(OC[C@H]1O[C@@H](n2cnc3c(N)ncnc32)C(F)(Cl)C1O)Oc1ccccc1` (single isomer, unassigned), for which, in the series with Hepatitis C virus, the EC50 stood at 0.6 µM and the EC90 was 2.1 µM. For the same compound, the 50% cytotoxic concentration (CC50) at 96 h in series [1] is > 33 µM. The CC50 at 120 h in series [2] was 84.8 µM. Also, the CC50 at 96 h in series [3] was determined as 36.3 µM. For the same compound, the CC50 at 72 h in series [4] is 53.9 µM.

In the case of `Nc1ncnc2c1ccn2[C@@H]1O[C@H](CO)C(O)C1(F)Cl` (single isomer, unassigned), in the series on Hepatitis C virus, the EC50 is > 10 µM and the EC90 is > 10 µM. Moreover, the CC50 at 96 h in series [1] is > 10 µM.
